Calls of active or inactive are those of the source. Rule as the data show it, for most assays here: actives have a measured EC50 and inactives only a lower limit.
How the values were obtained:
[1] = DRD fibroblast viability loss – cell-based, non-viral oncogenic, luminescence, dose response (AID 1934); assay type: functional; conditions: Homo sapiens
BJ [2] = experiment: BJ-TERT-LT-ST fibroblast viability loss – cell-based, RAS-independent, luminescence, dose response (AID 1935); assay type: functional; conditions: Homo sapiens;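 also: BJ fibroblasts immortalized with TERT plus LT and ST oncogenes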
BJ [3] = experiment: BJ-TERT fibroblast viability loss – cell-based, RAS-independent, luminescence, dose response (AID 1933); assay type: functional; conditions: Homo sapiens
BJ [4] = experiment: cells; assay type: functional, cell-based; conditions: Homo sapiens
[5] = Luminescence Cell-Based Dose Response HTS to Identify Inhibitors of 5'UTR Stem-Loop Driven Prion Protein mRNA Translation in H4 Neuroglioblastoma Cells. [Related pubchem assays: 1827 (Project Summary), 1813 (Primary HTS)]; assay type: functional
Paired box protein Pax-8 = Paired box protein Pax-8 (Homo sapiens, UniProt Q06710); experiment: PAX8 transcriptional activity inhibition in RMG-I – RMG-I cells, luciferase, cherry-pick, dose response (AID 687027); assay type: functional, cell-based;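 also: luciferase reporter driven by Pax8 target thyroperoxidase promoter measured by SteadyGlo luminescence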
Sequence of Paired box protein Pax-8 (Q06710 whole entry): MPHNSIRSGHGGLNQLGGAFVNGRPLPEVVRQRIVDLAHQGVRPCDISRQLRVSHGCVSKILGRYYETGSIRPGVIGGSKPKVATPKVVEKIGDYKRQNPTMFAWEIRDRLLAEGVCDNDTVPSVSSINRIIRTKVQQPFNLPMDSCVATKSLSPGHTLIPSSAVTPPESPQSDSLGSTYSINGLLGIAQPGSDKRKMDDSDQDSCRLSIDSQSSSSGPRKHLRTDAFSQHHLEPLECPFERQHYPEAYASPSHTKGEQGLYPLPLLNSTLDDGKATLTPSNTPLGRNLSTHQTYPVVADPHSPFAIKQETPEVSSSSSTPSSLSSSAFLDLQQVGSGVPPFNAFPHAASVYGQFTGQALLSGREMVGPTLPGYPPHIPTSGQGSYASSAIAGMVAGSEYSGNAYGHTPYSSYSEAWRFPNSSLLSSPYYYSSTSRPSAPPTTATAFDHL

[6] = alpha-synuclein stem-loop luciferase translation blockers – H4 neuroglioma cells, luminescence, confirmation (AID 1988); assay type: functional, cell-based
[7] = HEK-293T viability loss after treatment – luminescence, T-cell screen hits, cytotoxicity control for TCR NF-kB inhibitor project, dose response (AID 489026); assay type: functional, cell-based;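 also: cells exposed to compound about 14 hours before the viability readout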
[8] = luciferase reporter signal suppression in cells – H4 neuroglioma cells, luminescence, dose response (AID 1990); assay type: functional, cell-based
[9] = target: T1, Histone-lysine N-methyltransferase NSD2 (Homo sapiens, UniProt O96028); assay type: biochemical
T1 sequence (O96028 whole entry): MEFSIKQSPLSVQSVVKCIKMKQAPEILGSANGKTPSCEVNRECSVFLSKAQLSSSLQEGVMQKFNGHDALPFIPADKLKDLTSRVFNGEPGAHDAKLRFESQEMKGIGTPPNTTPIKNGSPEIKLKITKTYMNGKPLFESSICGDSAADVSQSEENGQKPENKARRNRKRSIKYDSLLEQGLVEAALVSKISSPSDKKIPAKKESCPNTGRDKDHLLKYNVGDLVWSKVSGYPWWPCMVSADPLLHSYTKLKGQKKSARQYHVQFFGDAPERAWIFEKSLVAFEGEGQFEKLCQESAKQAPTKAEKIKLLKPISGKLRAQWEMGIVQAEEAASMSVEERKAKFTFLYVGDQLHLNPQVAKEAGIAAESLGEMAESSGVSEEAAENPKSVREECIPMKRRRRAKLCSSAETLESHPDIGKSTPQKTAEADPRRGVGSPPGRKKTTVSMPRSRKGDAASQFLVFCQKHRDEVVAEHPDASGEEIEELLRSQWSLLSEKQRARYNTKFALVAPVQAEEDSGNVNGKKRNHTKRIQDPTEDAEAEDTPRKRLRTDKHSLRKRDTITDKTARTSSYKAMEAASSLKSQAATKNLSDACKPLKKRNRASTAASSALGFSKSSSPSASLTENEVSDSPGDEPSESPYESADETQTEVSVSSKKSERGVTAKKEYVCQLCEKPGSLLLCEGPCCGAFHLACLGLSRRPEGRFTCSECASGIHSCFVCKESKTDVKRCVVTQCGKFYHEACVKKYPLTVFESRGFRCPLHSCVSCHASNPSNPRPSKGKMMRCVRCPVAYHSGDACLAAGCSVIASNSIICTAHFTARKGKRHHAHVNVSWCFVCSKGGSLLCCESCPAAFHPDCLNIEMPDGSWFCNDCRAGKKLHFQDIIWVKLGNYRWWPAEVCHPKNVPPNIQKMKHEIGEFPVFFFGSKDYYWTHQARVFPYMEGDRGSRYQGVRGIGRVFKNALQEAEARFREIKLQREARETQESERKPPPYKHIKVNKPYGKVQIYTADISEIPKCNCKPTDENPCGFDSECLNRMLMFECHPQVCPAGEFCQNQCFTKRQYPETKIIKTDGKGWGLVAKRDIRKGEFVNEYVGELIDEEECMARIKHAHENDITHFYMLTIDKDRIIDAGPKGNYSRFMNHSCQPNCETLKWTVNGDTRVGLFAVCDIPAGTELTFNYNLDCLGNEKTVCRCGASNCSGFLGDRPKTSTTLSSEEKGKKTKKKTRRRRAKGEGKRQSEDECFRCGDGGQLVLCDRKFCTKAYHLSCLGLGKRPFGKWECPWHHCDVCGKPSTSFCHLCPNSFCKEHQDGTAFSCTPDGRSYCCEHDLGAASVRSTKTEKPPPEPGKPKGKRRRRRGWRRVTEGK

[10] = target: T2, Rac GTPase-activating protein 1 (Homo sapiens, UniProt Q9H0H5); experiment: blockers of MgcRacGAP-driven Rac1 GTP hydrolysis – biochemical, ADP Hunter fluorescence, primary and confirmatory, confirmation (AID 624330); assay type: functional
T2 sequence (Q9H0H5 whole entry): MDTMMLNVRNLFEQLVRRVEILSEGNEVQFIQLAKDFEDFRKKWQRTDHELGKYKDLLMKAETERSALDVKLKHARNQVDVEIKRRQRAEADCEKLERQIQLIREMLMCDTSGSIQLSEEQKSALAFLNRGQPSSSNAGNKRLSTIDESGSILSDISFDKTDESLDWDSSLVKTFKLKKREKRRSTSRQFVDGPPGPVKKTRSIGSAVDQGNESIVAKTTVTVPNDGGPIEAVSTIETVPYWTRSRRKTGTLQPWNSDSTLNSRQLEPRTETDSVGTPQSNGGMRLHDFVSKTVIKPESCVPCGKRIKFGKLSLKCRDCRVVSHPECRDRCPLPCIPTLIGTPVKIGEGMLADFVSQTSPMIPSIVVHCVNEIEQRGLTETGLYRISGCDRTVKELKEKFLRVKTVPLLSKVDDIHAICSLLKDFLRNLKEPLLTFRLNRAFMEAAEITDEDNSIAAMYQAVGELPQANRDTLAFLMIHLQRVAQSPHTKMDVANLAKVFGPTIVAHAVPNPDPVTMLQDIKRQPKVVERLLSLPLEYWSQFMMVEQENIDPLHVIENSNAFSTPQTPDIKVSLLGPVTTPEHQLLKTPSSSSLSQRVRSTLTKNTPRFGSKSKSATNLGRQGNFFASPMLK

[11] = target: T3, RNA-binding protein pos-1 (Caenorhabditis elegans, UniProt G5EF15); experiment: disruptors of C. elegans POS-1 RNA interaction – biochemical, fluorescence polarization, dose response (AID 1964);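 also: purified POS-1 fused to maltose binding protein made in E. coli; potency of compounds blocking POS-1 binding to fluorescent RNA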
T3 sequence (G5EF15 whole entry): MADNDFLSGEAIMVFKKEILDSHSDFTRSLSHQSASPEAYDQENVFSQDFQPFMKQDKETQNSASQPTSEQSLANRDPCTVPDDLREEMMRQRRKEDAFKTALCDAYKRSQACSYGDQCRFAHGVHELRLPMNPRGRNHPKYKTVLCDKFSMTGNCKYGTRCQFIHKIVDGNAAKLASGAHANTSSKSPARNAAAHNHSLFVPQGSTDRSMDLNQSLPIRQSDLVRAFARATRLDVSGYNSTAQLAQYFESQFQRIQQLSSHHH

[12] = target: T4, Zinc finger protein mex-5 (Caenorhabditis elegans, UniProt Q9XUB2); experiment: potency of MEX-5 RNA-binding blockers – biochemical, C. elegans, fluorescence polarization, dose response (AID 1960)
T4 sequence (Q9XUB2 whole entry): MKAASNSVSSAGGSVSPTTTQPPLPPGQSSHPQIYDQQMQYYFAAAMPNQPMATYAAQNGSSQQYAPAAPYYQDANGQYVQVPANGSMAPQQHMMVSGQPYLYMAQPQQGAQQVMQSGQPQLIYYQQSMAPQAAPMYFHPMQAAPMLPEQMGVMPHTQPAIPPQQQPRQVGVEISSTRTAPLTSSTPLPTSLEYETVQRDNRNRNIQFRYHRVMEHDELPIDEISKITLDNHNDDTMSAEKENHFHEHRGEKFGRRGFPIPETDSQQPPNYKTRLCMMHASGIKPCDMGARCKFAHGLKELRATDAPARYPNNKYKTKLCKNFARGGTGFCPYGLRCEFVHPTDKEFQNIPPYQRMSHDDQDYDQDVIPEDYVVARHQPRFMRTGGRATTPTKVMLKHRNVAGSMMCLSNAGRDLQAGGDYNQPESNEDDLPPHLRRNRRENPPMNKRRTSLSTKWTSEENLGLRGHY

[13] = target: T5, Heat shock factor protein 1 (Mus musculus, UniProt P38532); experiment: decrease of HSF1-responsive luciferase luminescence – cell-based, NIH3T3, dose retest, confirmation (AID 2382); assay type: functional;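 also: NIH3T3 fibroblasts with HSF1-driven luciferase reporter stressed by proteasome inhibitor MG132; luminescence from HSF1-driven luciferase expression after 8 hours of MG132 stress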
T5 sequence (P38532 whole entry): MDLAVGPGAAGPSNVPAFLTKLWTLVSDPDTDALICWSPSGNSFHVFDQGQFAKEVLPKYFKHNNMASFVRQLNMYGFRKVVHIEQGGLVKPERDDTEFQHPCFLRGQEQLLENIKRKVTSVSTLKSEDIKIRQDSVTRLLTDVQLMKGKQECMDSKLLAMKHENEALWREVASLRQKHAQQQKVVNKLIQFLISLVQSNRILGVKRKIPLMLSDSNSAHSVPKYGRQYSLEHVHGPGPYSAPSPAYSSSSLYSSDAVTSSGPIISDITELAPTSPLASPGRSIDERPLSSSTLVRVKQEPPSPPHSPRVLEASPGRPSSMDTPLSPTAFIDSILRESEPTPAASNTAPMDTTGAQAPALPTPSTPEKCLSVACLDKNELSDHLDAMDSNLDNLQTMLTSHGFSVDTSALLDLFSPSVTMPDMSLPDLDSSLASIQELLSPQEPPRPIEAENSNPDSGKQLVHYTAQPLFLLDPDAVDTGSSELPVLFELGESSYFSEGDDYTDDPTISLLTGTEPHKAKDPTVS

Fatty acid synthase [14] = target: T6, Fatty acid synthase (Homo sapiens, UniProt P49327); experiment: inhibition of human FAS-TE enzyme activity – biochemical, kinetic fluorescence intensity, dose response (AID 624326); assay type: functional;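 also: rate of fluorescence rise from hydrolysis of a fluorogenic O-methyl fluorescein ester substrate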
T6 sequence (P49327 whole entry): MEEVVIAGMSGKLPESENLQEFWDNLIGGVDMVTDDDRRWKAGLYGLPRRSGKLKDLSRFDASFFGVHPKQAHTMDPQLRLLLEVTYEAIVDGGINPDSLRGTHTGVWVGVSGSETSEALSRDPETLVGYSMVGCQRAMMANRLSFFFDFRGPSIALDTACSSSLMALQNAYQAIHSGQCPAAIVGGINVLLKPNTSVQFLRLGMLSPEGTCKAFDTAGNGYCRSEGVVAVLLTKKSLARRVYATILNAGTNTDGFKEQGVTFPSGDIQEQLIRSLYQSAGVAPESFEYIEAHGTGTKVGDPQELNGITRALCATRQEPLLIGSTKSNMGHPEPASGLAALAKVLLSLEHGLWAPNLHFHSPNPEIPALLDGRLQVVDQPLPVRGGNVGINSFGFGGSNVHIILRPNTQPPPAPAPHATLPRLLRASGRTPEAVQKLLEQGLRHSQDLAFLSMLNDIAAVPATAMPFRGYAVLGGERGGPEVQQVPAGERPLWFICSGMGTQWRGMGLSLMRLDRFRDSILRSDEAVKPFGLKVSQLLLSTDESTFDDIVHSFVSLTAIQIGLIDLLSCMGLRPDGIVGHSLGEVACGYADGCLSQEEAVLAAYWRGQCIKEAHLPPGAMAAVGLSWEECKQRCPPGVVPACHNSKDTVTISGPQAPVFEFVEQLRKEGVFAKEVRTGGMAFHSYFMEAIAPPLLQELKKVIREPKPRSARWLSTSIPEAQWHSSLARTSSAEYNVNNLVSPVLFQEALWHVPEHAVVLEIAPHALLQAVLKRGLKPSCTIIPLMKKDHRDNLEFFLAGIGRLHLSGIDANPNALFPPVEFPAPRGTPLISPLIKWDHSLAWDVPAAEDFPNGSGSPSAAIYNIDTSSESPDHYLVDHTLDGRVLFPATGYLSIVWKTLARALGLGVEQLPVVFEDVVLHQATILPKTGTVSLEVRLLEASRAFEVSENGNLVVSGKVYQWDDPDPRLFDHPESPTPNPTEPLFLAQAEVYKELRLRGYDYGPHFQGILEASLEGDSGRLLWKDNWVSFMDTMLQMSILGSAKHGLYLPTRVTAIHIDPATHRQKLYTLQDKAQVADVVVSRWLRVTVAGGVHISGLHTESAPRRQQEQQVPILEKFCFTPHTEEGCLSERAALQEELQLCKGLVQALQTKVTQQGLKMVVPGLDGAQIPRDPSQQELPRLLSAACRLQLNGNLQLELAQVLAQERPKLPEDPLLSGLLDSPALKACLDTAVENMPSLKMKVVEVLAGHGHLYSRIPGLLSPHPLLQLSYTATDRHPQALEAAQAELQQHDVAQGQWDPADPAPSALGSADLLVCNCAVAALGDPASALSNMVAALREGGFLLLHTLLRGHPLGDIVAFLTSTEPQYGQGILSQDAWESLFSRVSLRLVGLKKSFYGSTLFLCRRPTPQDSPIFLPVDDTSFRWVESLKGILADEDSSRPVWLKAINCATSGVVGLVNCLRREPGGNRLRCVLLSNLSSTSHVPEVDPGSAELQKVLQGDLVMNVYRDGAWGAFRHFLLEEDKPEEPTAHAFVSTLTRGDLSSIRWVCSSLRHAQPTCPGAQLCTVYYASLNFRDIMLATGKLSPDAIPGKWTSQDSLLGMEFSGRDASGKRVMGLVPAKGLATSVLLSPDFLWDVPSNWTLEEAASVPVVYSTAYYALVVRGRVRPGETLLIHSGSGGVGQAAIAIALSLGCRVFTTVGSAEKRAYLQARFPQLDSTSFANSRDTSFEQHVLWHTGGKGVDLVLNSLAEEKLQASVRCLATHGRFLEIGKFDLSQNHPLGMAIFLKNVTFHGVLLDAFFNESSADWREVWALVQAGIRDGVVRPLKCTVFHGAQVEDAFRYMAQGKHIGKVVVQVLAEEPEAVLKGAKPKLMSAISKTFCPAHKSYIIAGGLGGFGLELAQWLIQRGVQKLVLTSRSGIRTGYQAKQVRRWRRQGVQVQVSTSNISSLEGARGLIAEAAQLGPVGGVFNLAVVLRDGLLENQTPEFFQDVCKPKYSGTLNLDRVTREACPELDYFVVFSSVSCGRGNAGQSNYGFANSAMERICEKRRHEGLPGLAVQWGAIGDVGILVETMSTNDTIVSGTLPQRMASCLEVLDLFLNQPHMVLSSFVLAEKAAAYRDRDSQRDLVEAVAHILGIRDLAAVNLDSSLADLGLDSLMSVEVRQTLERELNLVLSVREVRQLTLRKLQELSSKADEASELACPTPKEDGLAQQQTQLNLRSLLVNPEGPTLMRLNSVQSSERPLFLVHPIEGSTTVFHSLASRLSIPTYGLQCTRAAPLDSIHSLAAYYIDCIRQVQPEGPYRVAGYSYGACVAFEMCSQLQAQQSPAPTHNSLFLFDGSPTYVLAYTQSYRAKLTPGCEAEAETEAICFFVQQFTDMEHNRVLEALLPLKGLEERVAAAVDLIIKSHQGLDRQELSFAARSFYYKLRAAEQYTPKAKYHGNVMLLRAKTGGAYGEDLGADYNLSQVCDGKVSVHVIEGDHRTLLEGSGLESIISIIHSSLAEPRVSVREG

Fatty acid synthase [15] = target: T6, Fatty acid synthase; experiment: inhibition of human FAS-TE enzyme activity – biochemical, endpoint fluorescence intensity, uHTS hits, dose response (AID 624327); assay type: functional;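 also: fluorescence from hydrolysis of an O-methyl fluorescein acyl ester substrate by the enzyme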

| Structure (SMILES) | EC50 [1] | EC50 (BJ [2]) | EC50 (BJ [3]) | EC50 (BJ [4]) | EC50 [11] | EC50 [12] | other results |
| --- | --- | --- | --- | --- | --- | --- | --- |
| CC(=O)c1cccc(Nc2c3c(nc4ccccc24)CCC3)c1 | 0.898 µM (active) | 1.11 µM (active) | 2.21 µM (active) | 30.6 µM (inconclusive) | – | – | – |
| Cc1ccc(C(=O)c2cc([N+](=O)[O-])ccc2N2CCCCC2)cc1 | 1.21 µM (active) | 0.576 µM (inconclusive) | 0.493 µM (inconclusive) | 82.5 µM (inconclusive) | – | – | EC50 [5]: 0.303 µM (active); AC50 (Paired box protein Pax-8): 3.39 µM (active); EC50 [6]: < 0.1 µM (active); IC50 [7]: > 80 µM (inactive); EC50 [8]: 0.129 µM (active) |
| CCOc1ccccc1N1CCN(C/C=C/c2ccc(N(C)C)cc2)CC1 | – | – | – | – | – | – | AC50 [9]: 15.5 µM (active); IC50 [10]: 75.8 µM (active) |
| CCCCC1=CC2=CC(=O)C(C)(O)C(=O)C2=CO1 (stereo not given) | – | – | – | – | 55.3 µM (active) | 23.5 µM (active) | – |
| O=C(O)c1ccc(CN2C(=O)c3cccc4c([N+](=O)[O-])ccc(c34)C2=O)cc1 | 10.9 µM (inconclusive) | 10.6 µM (inconclusive) | 9.19 µM (active) | 12.9 µM (active) | – | – | EC50 [13]: 6.53 µM (active) |
| COC(=O)c1c(O)[n+]([O-])c2ccc(OC)cc2[n+]1[O-] | – | – | – | – | 14.1 µM (active) | > 300 µM (inconclusive) | – |
| O=C(CC1C[C@H](C(=O)N2CCOCC2)[C@@]2(CCC3CCCC3)c3[nH]c4ccccc4c3CCN2C1=O)NCCc1ccccn1 (stereo not given in full) | – | – | – | – | – | – | IC50 (Fatty acid synthase [14]): 1.09 µM (active); IC50 (Fatty acid synthase [15]): 1.37 µM (active) |
| Cc1ccc(-c2nnc(Nc3ccc(CC(N)=O)cc3)c3ccccc23)cc1S(N)(=O)=O | – | – | – | – | > 300 µM (not active) | > 300 µM (not active) | – |
| CC1=N/C(=C/c2ccco2)C(=O)O1 | – | – | – | – | 71.1 µM (active) | 33.1 µM (active) | – |
